Measurements reported in patent US6403532B1, “Herbicidal synergistic composition, and method of controlling weeds” (Syngenta Crop Protection, Inc., priority 1995, dated 2002).

Key:
Assay type in all cases: in vivo
Sagittaria pygmaea = test: Herbicidal activity in paddy rice (transplanted), run-in method: Sagittaria pygmaea; conditions: 25 days after application
Description: (§1) A synergistic effect is always present when the activity of the active ingredient combination I and II, and/or III, and/or IV and/or V exceeds the total of the activity of the active ingredients applied singly.
(§2) The expected herbicidal activity Ae for a given combination of two herbicides can be calculated as follows (cf. COLBY, S. R., “Calculating synergistic and antagonistic response of herbicide combinations”, Weeds 15, pages 20-22, 1967):
(§3) X=per cent herbicidal activity in the treatment with the compound of formula I using a rate of application of p kg per hectare in comparison with untreated control (=0%).
(§4) Y=per cent herbicidal activity in the treatment with the compound of formulae II to V using a rate of application of q kg per hectare in comparison with untreated control.
(§5) Ae=expected herbicidal activity (per cent herbicidal activity comparison with the untreated control) after treatment with the compounds of formulae I and II to V at a rate of application of p+q kg of active ingredient per hectare.
(§6) If the activity actually observed exceeds the expected value Ae, synergism is present.
(§7) Herbicidal Activity in Paddy Rice (transplanted):
(§8) The test plants are sown or planted in standard soil in shallow plastic containers under greenhouse conditions. The containers are then filled with water to soil level. After 3 days, the water level is raised by 2 cm, and the test substances are applied in the form of an aqueous suspension (Formulation Example F7, c)) by the run-in method (application into the water). The test plants are then grown on in the greenhouse under optimal conditions. 25 days after application, the test is evaluated using a % scale (100%=complete damage, 0%=no activity).
(§9) Test plants: transplanted rice, Sagittaria pygmaea, Scirpus juncoides and Heterantera.
Table B1: Experiments in transplanted rice with Sagittaria pygmaea, using the run-in method

Scirpus juncoides = test: Herbicidal activity in paddy rice (transplanted), run-in method: Scirpus juncoides; conditions: 25 days after application
Description: as §1, §2, §3, §4, §5, §6, §7, §8, §9

Heterantera = test: Herbicidal activity in paddy rice (transplanted), run-in method: Heterantera; conditions: 25 days after application
Description: as §1, §2, §3, §4, §5, §6, §7, §8, §9

transplanted rice = test: Herbicidal activity in paddy rice (transplanted), run-in method: crop plant tolerance
Description: as §7, §8, §9

[1] = 500 g of active ingredient/ha, run-in method, 25 days after application
[2] = 60 g of active ingredient/ha, run-in method, 25 days after application
[3] = 250 g of active ingredient/ha, run-in method, 25 days after application

CCC(=O)Nc1ccc(Cl)c(Cl)c1 [2.2, 3′,4′-dichloropropionanilide]
Weed Sagittaria pygm. (Sagittaria pygmaea; 500 g of active ingredient/ha): 0% | Weed Sagittaria pygm. (Sagittaria pygmaea; 1000 g of active ingredient/ha): 0% | Weed Scirpus junc. (Scirpus juncoides; 500 g of active ingredient/ha): 0% | Weed Scirpus junc. (Scirpus juncoides; 1000 g of active ingredient/ha): 35% | Weed Heterantera (Heterantera; 1000 g of active ingredient/ha): 0% | Crop plant transplanted rice (transplanted rice; [1]): 0% | Crop plant transplanted rice (transplanted rice; 1000 g of active ingredient/ha, run-in method, 25 days after application): 0%

CCCOCCN(C(=O)CCl)c1c(CC)cccc1CC [2.3, 2-chloro-2′,6′-diethyl-N-(2-propoxyethyl)acetanilide]
Weed Sagittaria pygm. (Sagittaria pygmaea; 250 g of active ingredient/ha): 25% | Weed Sagittaria pygm. (Sagittaria pygmaea; 375 g of active ingredient/ha): 55% | Weed Sagittaria pygm. (Sagittaria pygmaea; 500 g of active ingredient/ha): 50% | Weed Heterantera (Heterantera; 60 g of active ingredient/ha): 0% | Weed Heterantera (Heterantera; 375 g of active ingredient/ha): 80% | Crop plant transplanted rice (transplanted rice; [2]): 0% | Crop plant transplanted rice (transplanted rice; [3]): 0% | Crop plant transplanted rice (transplanted rice; 375 g of active ingredient/ha, run-in method, 25 days after application): 0% | Crop plant transplanted rice (transplanted rice; [1]): 0%

COCCOc1ccccc1S(=O)(=O)NC(=O)Nc1nc(OC)nc(OC)n1 [1.3]
Weed Sagittaria pygm. (Sagittaria pygmaea; 6 g of active ingredient/ha): 70% | Weed Sagittaria pygm. (Sagittaria pygmaea; 12 g of active ingredient/ha): 75% | Weed Sagittaria pygm. (Sagittaria pygmaea; 24 g of active ingredient/ha): 94% | Crop plant transplanted rice (transplanted rice; 6 g of active ingredient/ha, run-in method, 25 days after application): 0% | Crop plant transplanted rice (transplanted rice; 12 g of active ingredient/ha, run-in method, 25 days after application): 0% | Crop plant transplanted rice (transplanted rice; 24 g of active ingredient/ha, run-in method, 25 days after application): 15%

COc1cc(OC)nc(Sc2cccc3c2C(=O)OC3C)n1 (stereo not shown) [I]
Weed Sagittaria pygm. (Sagittaria pygmaea; 60 g of active ingredient/ha): 0% | Weed Sagittaria pygm. (Sagittaria pygmaea; 120 g of active ingredient/ha): 0% | Weed Sagittaria pygm. (Sagittaria pygmaea; 240 g of active ingredient/ha): 0% | Weed Scirpus junc. (Scirpus juncoides; 60 g of active ingredient/ha): 0% | Weed Scirpus junc. (Scirpus juncoides; 120 g of active ingredient/ha): 50% | Weed Scirpus junc. (Scirpus juncoides; 240 g of active ingredient/ha): 92% | Weed Heterantera (Heterantera; 60 g of active ingredient/ha): 0% | Weed Heterantera (Heterantera; 120 g of active ingredient/ha): 0% | Weed Heterantera (Heterantera; 240 g of active ingredient/ha): 70% | Crop plant transplanted rice (transplanted rice; [2]): 0% | Crop plant transplanted rice (transplanted rice; 120 g of active ingredient/ha, run-in method, 25 days after application): 0% | Crop plant transplanted rice (transplanted rice; 240 g of active ingredient/ha, run-in method, 25 days after application): 0%

CCOC(=O)c1cnn(C)c1S(=O)(=O)NC(=O)Nc1nc(OC)cc(OC)n1 [1.2]
Weed Scirpus junc. (Scirpus juncoides; 15 g of active ingredient/ha): 0% | Weed Scirpus junc. (Scirpus juncoides; 30 g of active ingredient/ha): 20% | Weed Heterantera (Heterantera; 8 g of active ingredient/ha): 0% | Weed Heterantera (Heterantera; 15 g of active ingredient/ha): 0% | Weed Heterantera (Heterantera; 30 g of active ingredient/ha): 0% | Crop plant transplanted rice (transplanted rice; 8 g of active ingredient/ha, run-in method, 25 days after application): 0% | Crop plant transplanted rice (transplanted rice; 15 g of active ingredient/ha, run-in method, 25 days after application): 0% | Crop plant transplanted rice (transplanted rice; 30 g of active ingredient/ha, run-in method, 25 days after application): 0%

CCCCOC(=O)[C@@H](C)Oc1ccc(Oc2ccc(C#N)cc2F)cc1 [3.1, butyl (R)-2-[4-(4-cyano-2-fluorophenoxy)phenoxy]propionate]
Weed Sagittaria pygm. (Sagittaria pygmaea; 125 g of active ingredient/ha): 0% | Weed Sagittaria pygm. (Sagittaria pygmaea; 250 g of active ingredient/ha): 0% | Weed Scirpus junc. (Scirpus juncoides; 125 g of active ingredient/ha): 0% | Weed Scirpus junc. (Scirpus juncoides; 250 g of active ingredient/ha): 0% | Weed Heterantera (Heterantera; 125 g of active ingredient/ha): 0% | Weed Heterantera (Heterantera; 250 g of active ingredient/ha): 0% | Crop plant transplanted rice (transplanted rice; 125 g of active ingredient/ha, run-in method, 25 days after application): 0% | Crop plant transplanted rice (transplanted rice; [3]): 0%

CN(C(=O)COc1nc2ccccc2s1)c1ccccc1 [2.1, 2-(1,3-benzothiazol-2-yloxy)-N-methylacetanilide]
Weed Sagittaria pygm. (Sagittaria pygmaea; 500 g of active ingredient/ha): 0% | Weed Sagittaria pygm. (Sagittaria pygmaea; 1000 g of active ingredient/ha): 0% | Weed Scirpus junc. (Scirpus juncoides; 125 g of active ingredient/ha): 0% | Weed Scirpus junc. (Scirpus juncoides; 250 g of active ingredient/ha): 65% | Weed Scirpus junc. (Scirpus juncoides; 500 g of active ingredient/ha): 94% | Weed Heterantera (Heterantera; 500 g of active ingredient/ha): 40% | Weed Heterantera (Heterantera; 1000 g of active ingredient/ha): 50% | Crop plant transplanted rice (transplanted rice; in vivo): 0%

Clc1cc(Cl)nc(-c2ccccc2)n1 [VI, 4,6-dichloro-2-phenylpyrimidine]
Weed Sagittaria pygm. (Sagittaria pygmaea; 125 g of active ingredient/ha): 0% | Weed Heterantera (Heterantera; 125 g of active ingredient/ha): 0% | Crop plant transplanted rice (transplanted rice; in vivo): 0%
